Assays:
barnyardgrass [1] = test: Test C preemergence; assay type: in vivo, Echinochloa crusgalli; conditions: preemergence, 0 to 100 scale (0 no effect, 100 complete control)
Outline: (§1)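 Pre: seeds in loam/sand, directed soil spray. Post: 1–2 leaf plants, 2–10 cm. Cmpd in non-phytotoxic solvent + surfactant. Greenhouse 10 d; visual rating vs untreated, 0 = none, 100 = complete control.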

blackgrass [2] = test: Test C preemergence; assay type: in vivo, Alopecurus myosuroides; conditions: preemergence, 0 to 100 scale (0 no effect, 100 complete control)
Outline: as §1

corn [3] = test: Test C preemergence; assay type: in vivo, Zea mays; conditions: preemergence, 0 to 100 scale (0 no effect, 100 complete control)
Outline: as §1

green foxtail [4] = test: Test C preemergence; assay type: in vivo, Setaria viridis; conditions: preemergence, 0 to 100 scale (0 no effect, 100 complete control)
Outline: as §1

kochia [5] = test: Test C preemergence; assay type: in vivo, Bassia scoparia; conditions: preemergence, 0 to 100 scale (0 no effect, 100 complete control)
Outline: as §1

oat, wild [6] = test: Test C preemergence; assay type: in vivo, Avena fatua; conditions: preemergence, 0 to 100 scale (0 no effect, 100 complete control)
Outline: as §1

pigweed, palmer [7] = test: Test C preemergence; assay type: in vivo, Amaranthus palmeri; conditions: preemergence, 0 to 100 scale (0 no effect, 100 complete control)
Outline: as §1

ragweed [8] = test: Test C preemergence; assay type: in vivo, Ambrosia artemisiifolia; conditions: preemergence, 0 to 100 scale (0 no effect, 100 complete control)
Outline: as §1

ryegrass, Italian [9] = test: Test C preemergence; assay type: in vivo, Lolium multiflorum; conditions: preemergence, 0 to 100 scale (0 no effect, 100 complete control)
Outline: as §1

soybean [10] = test: Test C preemergence; assay type: in vivo, Glycine max; conditions: preemergence, 0 to 100 scale (0 no effect, 100 complete control)
Outline: as §1

wheat [11] = test: Test C preemergence; assay type: in vivo, Triticum aestivum; conditions: preemergence, 0 to 100 scale (0 no effect, 100 complete control)
Outline: as §1

barnyardgrass [12] = test: Test C postemergence; assay type: in vivo, Echinochloa crusgalli; conditions: postemergence, 10 days
Outline: as §1

blackgrass [13] = test: Test C postemergence; assay type: in vivo, Alopecurus myosuroides; conditions: postemergence, 10 days
Outline: as §1

corn [14] = test: Test C postemergence; assay type: in vivo, Zea mays; conditions: postemergence, 10 days
Outline: as §1

green foxtail [15] = test: Test C postemergence; assay type: in vivo, Setaria viridis; conditions: postemergence, 10 days
Outline: as §1

kochia [16] = test: Test C postemergence; assay type: in vivo, Bassia scoparia; conditions: postemergence, 10 days
Outline: as §1

oat, wild [17] = test: Test C postemergence; assay type: in vivo, Avena fatua; conditions: postemergence, 10 days
Outline: as §1

pigweed, palmer [18] = test: Test C postemergence; assay type: in vivo, Amaranthus palmeri; conditions: postemergence, 10 days
Outline: as §1

ragweed [19] = test: Test C postemergence; assay type: in vivo, Ambrosia artemisiifolia; conditions: postemergence, 10 days
Outline: as §1

ryegrass, Italian [20] = test: Test C postemergence; assay type: in vivo, Lolium multiflorum; conditions: postemergence, 10 days
Outline: as §1

soybean [21] = test: Test C postemergence; assay type: in vivo, Glycine max; conditions: postemergence, 10 days
Outline: as §1

wheat [22] = test: Test C postemergence; assay type: in vivo, Triticum aestivum; conditions: postemergence, 10 days
Outline: as §1

galium = test: Test C postemergence; assay type: in vivo, Galium aparine; conditions: postemergence, 10 days
Outline: as §1

horseweed = test: Test C postemergence; assay type: in vivo, Erigeron canadensis; conditions: postemergence, 10 days
Outline: as §1

barnyardgrass [23] = test: Test D flooded paddy test; assay type: in vivo, Echinochloa crus-galli; conditions: 250 g ai/ha, applied to paddy water, visual rating after 13 to 14 days, scale 0 to 100 (0 no effect, 100 complete control)
Outline: (§2)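 Visual ratings from 0, meaning no effect, to 100, meaning complete control, were assigned against untreated controls 13 to 14 days after compounds were added to the floodwater of pots kept 3 cm deep, with plants at the 2-leaf stage.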

ducksalad = test: Test D flooded paddy test; assay type: in vivo, Heteranthera limosa; conditions: 250 g ai/ha, applied to paddy water, visual rating after 13 to 14 days, scale 0 to 100 (0 no effect, 100 complete control)
Outline: as §2

rice = test: Test D flooded paddy test; assay type: in vivo, Oryza sativa; conditions: 250 g ai/ha, applied to paddy water, visual rating after 13 to 14 days, scale 0 to 100 (0 no effect, 100 complete control)
Outline: as §2

sedge, umbrella = test: Test D flooded paddy test; assay type: in vivo, Cyperus difformis; conditions: 250 g ai/ha, applied to paddy water, visual rating after 13 to 14 days, scale 0 to 100 (0 no effect, 100 complete control)
Outline: as §2

[24] = 125 g ai/ha, 0 to 100 scale, 0 no effect, 100 complete control
[25] = 500 g ai/ha, 0 to 100 scale (0 no effect, 100 complete control)

SMILES: Cc1ccc(-n2cnc(C(C)C)n2)cc1C(=O)N1CC(C(F)(F)F)Oc2c(Cl)cccc21 (single isomer, unassigned) [Compound 291]
- Barnyardgrass plant response rating (barnyardgrass [1]; 500 g ai/ha): 100
- Barnyardgrass plant response rating (barnyardgrass [1]; Test C, 125 g ai/ha): 100
- Blackgrass plant response rating (blackgrass [2]; 500 g ai/ha): 70
- Blackgrass plant response rating (blackgrass [2]; Test C, 125 g ai/ha): 50
- Corn plant response rating (corn [3]; 500 g ai/ha): 50
- Corn plant response rating (corn [3]; Test C, 125 g ai/ha): 30
- Foxtail, Green plant response rating (green foxtail [4]; 500 g ai/ha): 100
- Foxtail, Green plant response rating (green foxtail [4]; Test C, 125 g ai/ha): 100
- Kochia plant response rating (kochia [5]; 500 g ai/ha): 100
- Kochia plant response rating (kochia [5]; Test C, 125 g ai/ha): 80
- Oat, Wild plant response rating (oat, wild [6]; 500 g ai/ha): 80
- Oat, Wild plant response rating (oat, wild [6]; Test C, 125 g ai/ha): 60
- Pigweed, Palmer plant response rating (pigweed, palmer [7]; 500 g ai/ha): 100
- Pigweed, Palmer plant response rating (pigweed, palmer [7]; Test C, 125 g ai/ha): 100
- Ragweed plant response rating (ragweed [8]; 500 g ai/ha): 60
- Ragweed plant response rating (ragweed [8]; Test C, 125 g ai/ha): 40
- Ryegrass, Italian plant response rating (ryegrass, Italian [9]; 500 g ai/ha): 100
- Ryegrass, Italian plant response rating (ryegrass, Italian [9]; Test C, 125 g ai/ha): 90
- Soybean plant response rating (soybean [10]; 500 g ai/ha): 100
- Soybean plant response rating (soybean [10]; Test C, 125 g ai/ha): 90
- Wheat plant response rating (wheat [11]; 500 g ai/ha): 50
- Wheat plant response rating (wheat [11]; Test C, 125 g ai/ha): 30
- Plant response rating, Barnyardgrass (barnyardgrass [12]; [24]): 30
- Plant response rating, Barnyardgrass (barnyardgrass [12]; [25]): 90
- Plant response rating, Blackgrass (blackgrass [13]; [24]): 0
- Plant response rating, Blackgrass (blackgrass [13]; [25]): 50
- Plant response rating, Corn (corn [14]; [24]): 20
- Plant response rating, Corn (corn [14]; [25]): 80
- Plant response rating, Foxtail, Green (green foxtail [15]; [24]): 30
- Plant response rating, Foxtail, Green (green foxtail [15]; [25]): 90
- Plant response rating, Kochia (kochia [16]; [24]): 90
- Plant response rating, Kochia (kochia [16]; [25]): 100
- Plant response rating, Oat, Wild (oat, wild [17]; [24]): 50
- Plant response rating, Oat, Wild (oat, wild [17]; [25]): 80
- Plant response rating, Pigweed, Palmer (pigweed, palmer [18]; [24]): 100
- Plant response rating, Pigweed, Palmer (pigweed, palmer [18]; [25]): 100
- Plant response rating, Ragweed (ragweed [19]; [24]): 70
- Plant response rating, Ragweed (ragweed [19]; [25]): 80
- Plant response rating, Ryegrass, Italian (ryegrass, Italian [20]; [24]): 70
- Plant response rating, Ryegrass, Italian (ryegrass, Italian [20]; [25]): 80
- Plant response rating, Soybean (soybean [21]; [24]): 90
- Plant response rating, Soybean (soybean [21]; [25]): 100
- Plant response rating, Wheat (wheat [22]; [24]): 30
- Plant response rating, Wheat (wheat [22]; [25]): 70
- Plant response rating, Galium (galium; [24]): 100
- Plant response rating, Galium (galium; [25]): 100
- Plant response rating, Horseweed (horseweed; [24]): 60
- Plant response rating, Horseweed (horseweed; [25]): 60
- Plant response rating, Barnyardgrass (Flood) (barnyardgrass [23]): 40
- Plant response rating, Ducksalad (Flood) (ducksalad): 45
- Plant response rating, Rice (Flood) (rice): 0
- Plant response rating, Sedge, Umbrella (Flood) (sedge, umbrella): 95

SMILES: Cc1ccc(-n2cnc(C(C)C)n2)cc1C(=O)N1CC(C(F)(F)F)Oc2c(Cl)cccc21 (single isomer, unassigned) [Compound 292]
- Barnyardgrass plant response rating (barnyardgrass [1]; 500 g ai/ha): 90
- Barnyardgrass plant response rating (barnyardgrass [1]; Test C, 125 g ai/ha): 20
- Blackgrass plant response rating (blackgrass [2]; 500 g ai/ha): 90
- Blackgrass plant response rating (blackgrass [2]; Test C, 125 g ai/ha): 30
- Corn plant response rating (corn [3]; 500 g ai/ha): 10
- Corn plant response rating (corn [3]; Test C, 125 g ai/ha): 10
- Foxtail, Green plant response rating (green foxtail [4]; 500 g ai/ha): 100
- Foxtail, Green plant response rating (green foxtail [4]; Test C, 125 g ai/ha): 90
- Kochia plant response rating (kochia [5]; 500 g ai/ha): 60
- Kochia plant response rating (kochia [5]; Test C, 125 g ai/ha): 30
- Oat, Wild plant response rating (oat, wild [6]; 500 g ai/ha): 80
- Oat, Wild plant response rating (oat, wild [6]; Test C, 125 g ai/ha): 40
- Pigweed, Palmer plant response rating (pigweed, palmer [7]; 500 g ai/ha): 100
- Pigweed, Palmer plant response rating (pigweed, palmer [7]; Test C, 125 g ai/ha): 100
- Ragweed plant response rating (ragweed [8]; 500 g ai/ha): 20
- Ragweed plant response rating (ragweed [8]; Test C, 125 g ai/ha): 20
- Ryegrass, Italian plant response rating (ryegrass, Italian [9]; 500 g ai/ha): 100
- Ryegrass, Italian plant response rating (ryegrass, Italian [9]; Test C, 125 g ai/ha): 90
- Soybean plant response rating (soybean [10]; 500 g ai/ha): 90
- Soybean plant response rating (soybean [10]; Test C, 125 g ai/ha): 40
- Wheat plant response rating (wheat [11]; 500 g ai/ha): 50
- Wheat plant response rating (wheat [11]; Test C, 125 g ai/ha): 20
- Plant response rating, Barnyardgrass (barnyardgrass [12]; [24]): 10
- Plant response rating, Barnyardgrass (barnyardgrass [12]; [25]): 20
- Plant response rating, Blackgrass (blackgrass [13]; [24]): 0
- Plant response rating, Blackgrass (blackgrass [13]; [25]): 20
- Plant response rating, Corn (corn [14]; [24]): 10
- Plant response rating, Corn (corn [14]; [25]): 20
- Plant response rating, Foxtail, Green (green foxtail [15]; [24]): 30
- Plant response rating, Foxtail, Green (green foxtail [15]; [25]): 40
- Plant response rating, Kochia (kochia [16]; [24]): 70
- Plant response rating, Kochia (kochia [16]; [25]): 90
- Plant response rating, Oat, Wild (oat, wild [17]; [24]): 0
- Plant response rating, Oat, Wild (oat, wild [17]; [25]): 50
- Plant response rating, Pigweed, Palmer (pigweed, palmer [18]; [24]): 80
- Plant response rating, Pigweed, Palmer (pigweed, palmer [18]; [25]): 80
- Plant response rating, Ragweed (ragweed [19]; [24]): 30
- Plant response rating, Ragweed (ragweed [19]; [25]): 20
- Plant response rating, Ryegrass, Italian (ryegrass, Italian [20]; [24]): 0
- Plant response rating, Ryegrass, Italian (ryegrass, Italian [20]; [25]): 60
- Plant response rating, Soybean (soybean [21]; [24]): 100
- Plant response rating, Soybean (soybean [21]; [25]): 100
- Plant response rating, Wheat (wheat [22]; [24]): 20
- Plant response rating, Wheat (wheat [22]; [25]): 30
- Plant response rating, Galium (galium; [24]): 70
- Plant response rating, Galium (galium; [25]): 80
- Plant response rating, Horseweed (horseweed; [24]): 20
- Plant response rating, Horseweed (horseweed; [25]): 60
- Plant response rating, Barnyardgrass (Flood) (barnyardgrass [23]): 0
- Plant response rating, Ducksalad (Flood) (ducksalad): 0
- Plant response rating, Rice (Flood) (rice): 0
- Plant response rating, Sedge, Umbrella (Flood) (sedge, umbrella): 0

Source: patent publication US20260262643A1, “HERBICIDAL BENZOXAZINES” (FMC CORPORATION, priority 2022, published 2026)
